Results reported in patent US20240270821A1, “GIP/GLP1/GCG TRI-RECEPTOR AGONISTS AND USES THEREOF” (priority 2023, published 2024).
Starred links: 1 amine or outer side, 2 acyl side, 3 side chain; linkers in the order of their positions; H or OH if unused. Non-standard residues stand in square brackets, D forms with d. Groups on a side chain read outwards from the residue. No end group written: not given here. *: point of attachment. C20 diacid = O=C(O)CCCCCCCCCCCCCCCCCCC(=O)*; C18 diacid = O=C(O)CCCCCCCCCCCCCCCCC(=O)*; γGlu = O=C(O)[C@H](CCC(=O)[*:2])N[*:1]; αMe4Pal = C[C@](N)(Cc1ccncc1)C(=O)O; αMeY = C[C@](N)(Cc1ccc(O)cc1)C(=O)O; 4Pal = N[C@@H](Cc1ccncc1)C(=O)O; αMeL = CC(C)C[C@](C)(N)C(=O)O; AEEA = NCCOCCOCC(=O)O; Aib = CC(C)(N)C(=O)O

Key:
Type in all cases: cell-based
hGIPR [1] = target: T1, hGIPR (Homo sapiens, UniProt P48546); assay: Functional cAMP activity in the presence of 1% HSA; conditions: read-out: cAMP Rel EC50, hGIPR
T1 sequence (P48546 22-466): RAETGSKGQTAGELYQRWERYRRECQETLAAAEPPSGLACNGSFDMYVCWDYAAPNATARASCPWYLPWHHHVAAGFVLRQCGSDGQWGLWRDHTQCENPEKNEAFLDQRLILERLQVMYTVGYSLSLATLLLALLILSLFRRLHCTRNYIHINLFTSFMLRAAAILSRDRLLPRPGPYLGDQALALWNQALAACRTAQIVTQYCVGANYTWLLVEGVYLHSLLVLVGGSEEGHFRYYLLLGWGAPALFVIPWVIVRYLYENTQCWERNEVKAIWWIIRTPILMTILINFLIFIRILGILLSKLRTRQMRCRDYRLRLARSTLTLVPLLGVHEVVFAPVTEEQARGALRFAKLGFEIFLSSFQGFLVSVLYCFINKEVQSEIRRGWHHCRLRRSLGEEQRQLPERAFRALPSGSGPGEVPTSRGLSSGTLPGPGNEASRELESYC

hGLP-1R [2] = target: T2, hGLP-1R (Homo sapiens, UniProt P43220); assay: Functional cAMP activity in the presence of 1% HSA; conditions: read-out: cAMP Rel EC50, hGLP-1R
T2 sequence (P43220 24-463): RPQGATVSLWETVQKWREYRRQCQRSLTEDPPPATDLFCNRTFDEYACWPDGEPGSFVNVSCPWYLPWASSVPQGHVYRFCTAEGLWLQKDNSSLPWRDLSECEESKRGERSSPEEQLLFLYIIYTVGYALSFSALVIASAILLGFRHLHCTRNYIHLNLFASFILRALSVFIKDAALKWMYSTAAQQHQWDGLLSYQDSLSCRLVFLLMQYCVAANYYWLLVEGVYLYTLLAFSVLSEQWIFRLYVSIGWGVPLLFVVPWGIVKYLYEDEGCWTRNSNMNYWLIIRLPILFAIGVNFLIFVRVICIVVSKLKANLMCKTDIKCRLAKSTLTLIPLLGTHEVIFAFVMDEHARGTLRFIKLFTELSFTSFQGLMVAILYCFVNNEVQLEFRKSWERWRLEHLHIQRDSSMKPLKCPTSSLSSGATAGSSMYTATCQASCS

human GcgR = human GcgR (Homo sapiens, UniProt P47871); assay: Functional cAMP activity in the presence of 1% HSA; conditions: read-out: cAMP Rel EC50, hGcgR
human GcgR, sequence (P47871 26-477): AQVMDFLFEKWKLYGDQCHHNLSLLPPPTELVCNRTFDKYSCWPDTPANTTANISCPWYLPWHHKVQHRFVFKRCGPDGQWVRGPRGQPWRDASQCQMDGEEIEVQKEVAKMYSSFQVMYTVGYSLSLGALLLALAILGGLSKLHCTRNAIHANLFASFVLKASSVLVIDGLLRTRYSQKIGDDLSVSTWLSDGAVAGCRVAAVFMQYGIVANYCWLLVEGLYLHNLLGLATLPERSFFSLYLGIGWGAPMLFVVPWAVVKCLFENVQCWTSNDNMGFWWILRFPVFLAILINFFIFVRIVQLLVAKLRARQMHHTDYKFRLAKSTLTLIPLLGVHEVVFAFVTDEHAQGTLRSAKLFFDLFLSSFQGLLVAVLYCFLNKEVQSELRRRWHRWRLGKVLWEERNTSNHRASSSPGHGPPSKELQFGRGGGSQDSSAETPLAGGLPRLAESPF

hGIPR [3] = target: T1, hGIPR; assay: Functional cAMP activation in the presence of 0.1% casein (no HSA); conditions: in the presence of 0.1% casein (no HSA); geometric mean; read-out: Relative cAMP EC50, hGIPR;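 as to Relative cAMP EC50, hGIPR: intracellular cAMP rise after 30 min at 37 °C read by HTRF against a standard curve, scaled between buffer alone (0%) and top control ligand concentration (100%), four-parameter fit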;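 as to Relative cAMP EC50, hGLP-1R: intracellular cAMP rise after 30 min at 37 °C read by HTRF, normalized between buffer only (0%) and maximal control ligand (100%), four-parameter variable-slope fit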;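 as to Relative cAMP EC50, hGcgR: intracellular cAMP rise after 30 min at 37 °C, read by HTRF against a cAMP standard curve, scaled from buffer only (0%) to maximal control ligand response (100%)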
hGLP-1R [4] = target: T2, hGLP-1R; assay: as above; conditions: in the presence of 0.1% casein (no HSA); geometric mean; read-out: Relative cAMP EC50, hGLP-1R
hGcgR = hGcgR (Homo sapiens, UniProt P47871); assay: as above; conditions: in the presence of 0.1% casein (no HSA); geometric mean; read-out: Relative cAMP EC50, hGcgR;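 also: intracellular cAMP rise after 30 min at 37 °C, read by HTRF against a cAMP standard curve, scaled from buffer only (0%) to maximal control ligand response (100%)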
hGcgR, sequence (P47871 26-477): as above

Substance	EC50 (hGIPR [1])	EC50 (hGLP-1R [2])	EC50 (human GcgR)	EC50 (hGIPR [3])	EC50 (hGLP-1R [4])	EC50 (hGcgR)
Y[Aib]QGTFTSDYSI[αMeL]LDKQAAK([AEEA-AEEA-γGlu-C20 diacid])QFIEYLIA[Aib]GPSSGEPPPSEG-NH2 [Example 349]	52.6 nM	218 nM	2280 nM	0.152 nM	0.555 nM	5.12 nM
Y[Aib]QGTFTSDYSI[αMeL]LDKQAAK([AEEA-AEEA-γGlu-C20 diacid])QFVEWLLAGGPSSGEPPPGEG-NH2 [Example 320]	55.3 nM	328 nM	1170 nM	0.274 nM	2.58 nM	6.87 nM
Y[Aib]QGTFTSD[4Pal]SK[αMeL]LDKK([AEEA-γGlu-C18 diacid])AQ[Aib]AFIEYLIA[Aib]GESSGEPPPSGE-NH2 [Example 286]	11.5 nM	925 nM	228 nM	0.0845 nM	3.45 nM	2.2 nM
Y[Aib]QGTFTSD[4Pal]SK[αMeL]LDKK([AEEA-γGlu-C18 diacid])AQ[Aib]AFIEYLIE[Aib]GESSGEPPPSGE-NH2 [Example 281]	25.8 nM	295 nM	1370 nM	0.154 nM	1.6 nM	13.7 nM
Y[Aib]QGTFTSD[4Pal]SQ[αMeL]LDKK([AEEA-γGlu-C18 diacid])AQ[Aib]AFIEYLLE[dA]GPSSGAPPPSGS-NH2 [Example 820]	17.5 nM	299 nM	1270 nM	0.121 nM	2.78 nM	6.83 nM
Y[Aib]QGTFTSD[4Pal]SQ[αMeL]LDKK([AEEA-γGlu-C18 diacid])AQ[Aib]AFIEYLLE[dA]GPSSGAPPPSG[4Pal]-NH2 [Example 822]	18.1 nM	322 nM	2100 nM	0.186 nM	2.51 nM	11.6 nM
Y[Aib]QGTFTSD[4Pal]SQ[αMeL]LDKK([AEEA-γGlu-C18 diacid])AQ[Aib]AFIE[αMeY]LIEGGPSSGAPPPSGS-NH2 [Example 838]	23.2 nM	72.2 nM	3070 nM	0.225 nM	0.379 nM	20.7 nM
Y[Aib]QGTFTSD[4Pal]SQ[αMeL]LDKK([AEEA-γGlu-C18 diacid])AQ[αMe4Pal]AFIEWLIEGGPSSGAPPPSG[4Pal]-NH2 [Example 832]	18.6 nM	209 nM	1360 nM	0.187 nM	1.07 nM	9.1 nM
Y[Aib]QGTFTSD[4Pal]SQ[αMeL]LDKK([AEEA-γGlu-C18 diacid])AQ[αMe4Pal]AFIEYLIAGGPSSGEPPPSGS-NH2 [Example 828]	14.9 nM	114 nM	481 nM	0.149 nM	1.17 nM	3.58 nM
Y[Aib]QGTFTSD[4Pal]SQ[αMeL]LDKK([AEEA-γGlu-C18 diacid])AQ[αMe4Pal]AFIEYLIE[Aib]GPSSGAPPPSGS-NH2 [Example 810]	23.6 nM	256 nM	540 nM	0.156 nM	2.09 nM	3.3 nM
Y[Aib]QGTFTSD[4Pal]SQ[αMeL]LDKK([AEEA-γGlu-C18 diacid])AQ[αMe4Pal]AFIEYLIE[dA]GPSSGAPPPSGS-NH2 [Example 829]	22.4 nM	130 nM	325 nM	0.124 nM	1.15 nM	2.41 nM
Y[Aib]QGTFTSD[4Pal]SQ[αMeL]LDKK([AEEA-γGlu-C18 diacid])AQ[αMe4Pal]AFIE[αMeY]LIEGGPSSGAPPPEGS-NH2 [Example 852]	45.6 nM	182 nM	1230 nM	0.34 nM	0.871 nM	2.26 nM
Y[Aib]QGTFTSD[4Pal]SQ[αMeL]LDKK([Glu-Glu-γGlu-C18 diacid])AQ[αMe4Pal]AFIEYLIE[Aib]GPSSGAPPPSGS-NH2 [Example 895]	34 nM	599 nM	1250 nM	0.111 nM	3.72 nM	4.68 nM
